From article doi:10.1101/2025.03.14.643404, “A Bivalent Molecular Glue Linking Lysine Acetyltransferases to Oncogene-induced Cell Death” (bioRxiv, 2025)

What was measured:
c-MYC mRNA = test: RT-qPCR of c-MYC transcripts in SUDHL5; assay type: cell-based, human; settings: for effect of competitor co-treatment on c-MYC mRNA repression by TCIP3: SUDHL5, 10 nM TCIP3 plus 500 nM inhibitor, 1 h; for c-MYC repression compared with TCIP3: SUDHL5, matched concentrations, transcript or proteomic level
Experimental: Cells were plated at 1M/mL and harvested in TRIsure (Bioline 38033). RNA was extracted using Direct-zol RNA MicroPrep columns (Zymo R2062) treated with DNAseI. cDNA was prepared (Meridian Bioscience BIO-65054) and used for qPCR (Meridian Bioscience BIO-94050) using an AppliedBiosystems QuantStudio 6Pro. Primer sequences were the following:
• c-MYC fwd: […]; • c-MYC rev: […]; • GAPDH fwd: […]; • GAPDH rev: […].

SUDHL5 cells [1] = test: Cell viability, 72 h compound treatment (PrestoBlue), SUDHL5; assay type: cell-based, human; settings: for effect of inhibitor co-treatment on TCIP3 cell killing: SUDHL5, constant 1 nM TCIP3 plus titrated inhibitor, 72 h
Experimental: Thirty thousand cells were seeded in 100 μl of media per well of a 96-well plate and treated with drug for the indicated times and doses. A resazurin-based indicator of cell health (PrestoBlue; P50200, Thermo Fisher) was added for 1.5 h at 37°C, at which point the fluorescence ratio at 560/590 nm was recorded (Tecan Spark). The background fluorescence was subtracted, and the signal was normalized to DMSO-treated cells. IC50 measurements on cell lines were calculated using at least three biological replicates (separate cell passages). Fit of dose–response curves to data and statistical analysis was performed using GraphPad PRISM using the four-parameter log(inhibitor) vs response function.

BCL6^BTB = target: T1, BCL6^BTB (Homo sapiens, UniProt P41182); test: BCL6BTB nanoBRET probe displacement in HEK293T; assay type: cell-based; settings: compared with TCIP3
T1 construct: human BCL6 (Uniprot: P41182; aa1–129); expressed in transfected cells; host or cells: HEK293T
Experimental: The construct for NanoLuciferase(NanoLuc)-tagged BCL6^BTB was created as follows in a lentiviral construct: an N-terminal NanoLuc (subcloned from pNLSF-1, Promega N1351) was fused to the BTB domain of human BCL6 (Uniprot: P41182; aa1–129) with an internal GSG linker followed by a V5 tag. HEK293T cells were plated at a density of 6×10^5 cells/mL in 2 mL of DMEM/well in a tissue culture treated 6-well plate and were allowed to incubate overnight at 37 °C. The next day, each well of cells was transfected with 2 ug of NanoLuc-BCL6^BTB (renamed pNSG218) using Lipofectamine 2000. The transfected cells were allowed to incubate overnight at 37 °C. The following day, the transfected cells were trypsizined, washed with PBS, counted with Trypan Blue, and brought to a final concentration of 1.25×10^5 cells/mL in Fluorobrite DMEM (Gibco A1896701) supplemented with 10% FBS. 1 uM TNL-15 probe was added to the cells before plating 5000 cells per well in a volume of 40 uL per well in a 384-well plate. […] Data was then obtained using a PheraStar FS plate reader (BMG Labtech) measuring luminescence with 520-BP and 450-BP filters. […]
For all NanoBRET assays, a dose-response curve with 3 technical replicates was constructed for each compound, and corrected BRET ratios were calculated according to manufacturer assay protocol (Promega TM439). […]

[2] = system: BCL6-repressed GFP reporter; test: BCL6 reporter assay (BCL6-repressed GFP) in K422 cells; assay type: cell-based, human; settings: 24 h
Experimental: KARPAS422 cells were lentivirally transduced with a construct containing the reporter. Description of the reporter construct has been published previously. After selection, cells were plated and treated with indicated amount of compound for 24 hours. Cells were washed in 2.5% FBS/PBS, stained with 1:250 v/v of 7-AAD (BD 559925) to distinguish live from dead cells, and harvested for flow cytometry on a BD Accuri. Given the polyclonal population after transduction, the area under the curve of the histogram representing FITC signal across all live cells was calculated as an integrative measure of total GFP signal. A GFP-positive gate two standard deviations from the mean was drawn from non-transduced cells and the area past a constant threshold was calculated and normalized to the signal from cells treated with DMSO.

SUDHL5 cells [3] = test: Global proteome profiling in SUDHL5, whole proteome; assay type: cell-based, human; settings: SUDHL5, 10 nM, 6 and 24 hours
Experimental: SUDHL5 cells (6M cells in 6 mL RPMI-1640 media supplemented with 10% FBS and 1x pen-strep) were treated with 0.1% DMSO, 10 nM TCIP3, 10 nM Neg1, 10 nM Neg2, or 250 nM dCBP1 (1000x stocks in DMSO for final 0.1% DMSO concentration) in 3 biologically independent replicates. The cells were washed twice with TBS (50 mM Tris, pH 8.5, and 150 mM NaCl) and then stored at −80 °C until use.
Lysis was performed by first thermally denaturing the samples in residual wash buffer for 5 min at 95 °C. Fresh Lysis Buffer (8 M urea, 150 mM NaCl, and 100 mM HEPES, pH 8.0, in MS-grade water) was then added, and the lysates were homogenized using needle ultrasonication and then normalized to 30 μg of 2 mg/mL by diluting with Lysis Buffer via a Bradford protein concentration assay (Bio-Rad 5000006) in technical duplicates. […]
Samples were then desalted using SOLAμ SPE HRP Peptide Desalting columns (Thermo 60209–001) with a Positive Pressure Manifold and all MS-grade reagents. […] The samples were then reconstituted in 0.1% FA in water and then analyzed by LC-MS/MS (see below).
The reconstituted desalted peptides were then analyzed using a nanoElute 2 UHPLC (Bruker Daltonics, Bremen, Germany) coupled to a timsTOF HT (Bruker Daltonics, Bremen, Germany) via a CaptiveSpray nano-electrospray source. […]

p300^Q1083A = p300^Q1083A (Homo sapiens, UniProt P41182+Q09472, Q1082A); test: TR-FRET binary displacement assay, p300 Q1083A bromodomain; assay type: binding; settings: α = Kd binary/Kd ternary
Experimental: (§1) Drugs were digitally dispensed (Tecan D300e) into protein-containing wells, and the plate was allowed to incubate in the dark for 1 hour at room temperature. Emission at 490 nm (terbium) and 520 nm (FITC) was measured on a PHERAstar FS plate reader (BMG Labtech) upon excitation with 337 nm. The ratio of signal at 520 nm to 490 nm was calculated and normalized to DMSO-treated protein.

p300^Q1083R = p300^Q1083R (Homo sapiens, UniProt P41182+Q09472, Q1082R); test: TR-FRET binary displacement assay, p300 Q1083R bromodomain; assay type: binding; settings: α = Kd binary/Kd ternary
Experimental: as §1

Row | SMILES | effect of competitor co-treatment on c-MYC mRNA repression by TCIP3 (c-MYC mRNA) | c-MYC repression compared with TCIP3 (c-MYC mRNA) | effect of inhibitor co-treatment on TCIP3 cell killing (SUDHL5 cells [1]) | cellular binding to BCL6 BTB (BCL6^BTB) | activation of GFP expression [2] | proteome changes relative to DMSO (SUDHL5 cells [3]) | IC50 (SUDHL5 cells [1]; Homo sapiens, SU-DHL-5, SUDHL5, 72 h, read-out: IC50 cell viability / antiproliferation) [nM] | cooperativity α (p300^Q1083A) | cooperativity α (p300^Q1083R)
1 | CNC(=O)COc1cc2cc(Nc3nc(N4CCC(C(=O)N(C)C)CC4)ncc3Cl)cc(OC)c2n(C)c1=O [BI-3812] | almost completely restored c-MYC levels to baseline | Neither GNE-781, dCBP-1, NEG1, NEG2, nor the BCL6^BTB inhibitor BI-3812 produced comparable c-MYC repression | buffered the effects of TCIP3 on cell viability |  |  |  |  |  | 
2 | CNC(=O)COc1cc2cc(Nc3nc(N4CCC(C(=O)N5CCN(CCC(=O)N6CCC(n7nc(N8CCCc9cc(-c%10cnn(C)c%10)c(C(F)F)cc98)c8c7CCN(C(=O)c7ccccc7)C8)CC6)CC5)CC4)ncc3Cl)cc(OC)c2n(C)c1=O [NEG2] |  | Neither GNE-781, dCBP-1, NEG1, NEG2, nor the BCL6^BTB inhibitor BI-3812 produced comparable c-MYC repression |  | potent binders | Neither NEG1 nor NEG2 activated GFP expression | no significant changes relative to DMSO | 2100 |  | 
3 | CNC(=O)N1CCc2c(c(N3CCCc4cc(-c5cnn(C)c5)c(C(F)F)cc43)nn2C2CCOCC2)C1 [GNE-781] | restored c-MYC levels to those observed with GNE-781 treatment alone | Neither GNE-781, dCBP-1, NEG1, NEG2, nor the BCL6^BTB inhibitor BI-3812 produced comparable c-MYC repression | buffered the effects of TCIP3 on cell viability |  |  |  |  | ~ 0.88 | ~ 1.0
